Values of other authors as cited in patent US20030195186A1, “Methods of treating medication-, substance-, disease-, and other medical condition-related sexual dysfunction” (priority 2002, published 2003).

Conditions: intrathecal; spinal-cord injured male patients; case reports

## CN(C)C(=O)Oc1cccc([N+](C)(C)C)c1 [neostigmine]
  assisting patients with anejaculation to obtain ejaculation: being able to obtain ejaculation
